The source of these data is ChEMBL document CHEMBL4033663, “Design, combinatorial synthesis and biological evaluations of novel 3-amino-1'-((1-aryl-1H-1,2,3-triazol-5-yl)methyl)-2'-oxospiro[benzo[a] pyrano[2,3-c]phenazine-1,3'-indoline]-2-carbonitrile antitumor hybrid molecules” (Eur J Med Chem, 2017).

pIC50: −log10 of the molar value.

For orientation: pIC50 means −log10 of the IC50, conventionally taken in molar units. A low value points to a high IC50.

In the first assay the test system is HUVEC. As to the kind of experiment: Antiproliferative activity against human HUVEC cells after 48 hrs by MTT assay. It counts as cell-based.
Conditions: not given
Compound `N#CC1=C(N)Oc2c(c3nc4ccccc4nc3c3ccccc23)C12C(=O)N(Cc1cnnn1-c1ccc(F)cc1)c1ccccc12` (configuration not stated) gave a pIC50 of under 4.30.
`Cc1ccc(C)c(-n2nncc2CN2C(=O)C3(C(C#N)=C(N)Oc4c3c3nc5ccccc5nc3c3ccccc43)c3ccccc32)c1` (configuration not stated) showed a pIC50 of under 4.30.
In turn, `N#CC1=C(N)Oc2c(N)cc3nc4ccccc4nc3c2C12C(=O)N(Cc1cnnn1-c1ccccc1Cl)c1ccccc12` (configuration not stated) gave a negative-log IC50 (pIC50) of under 4.30.
For the compound `Cc1cccc(-n2nncc2CN2C(=O)C3(C(C#N)=C(N)Oc4c3c3nc5ccccc5nc3c3ccccc43)c3ccccc32)c1` (configuration not stated), the pIC50 was under 4.30.
In turn, `N#CC1=C(N)Oc2c(N)cc3nc4ccccc4nc3c2C12C(=O)N(Cc1cnnn1-c1ccc(F)cc1)c1ccccc12` (configuration not stated) showed a pIC50 of under 4.30.
Same read-out and setting: the same measure for `Cc1ccc(-n2nncc2CN2C(=O)C3(C(C#N)=C(N)Oc4c3c3nc5ccccc5nc3c3ccccc43)c3ccccc32)cc1Cl` (configuration not stated): under 4.30.
Turning to `CCOc1ccccc1-n1nncc1CN1C(=O)C2(C(C#N)=C(N)Oc3c2c2nc4ccccc4nc2c2ccccc32)c2ccccc21` (configuration not stated), the pIC50 is under 4.30.

A further assay relates to A549. As to the kind of experiment: Antiproliferative activity against human A549 cells after 48 hrs by MTT assay. It counts as functional, cell-based. The following applies: A549, 48 h. (Tetrazolium dyes change colour on reduction, which living cells bring about.)
`N#CC1=C(N)Oc2c(c3nc4ccccc4nc3c3ccccc23)C12C(=O)N(Cc1cnnn1-c1ccc(F)cc1)c1ccccc12` (configuration not stated): the pIC50 was under 4.30.
Consider `Cc1ccc(C)c(-n2nncc2CN2C(=O)C3(C(C#N)=C(N)Oc4c3c3nc5ccccc5nc3c3ccccc43)c3ccccc32)c1` (configuration not stated), for which the pIC50 was under 4.30.
Same read-out and setting: the same measure for `N#CC1=C(N)Oc2c(N)cc3nc4ccccc4nc3c2C12C(=O)N(Cc1cnnn1-c1ccccc1Cl)c1ccccc12` (configuration not stated): 4.53.
For `Cc1cccc(-n2nncc2CN2C(=O)C3(C(C#N)=C(N)Oc4c3c3nc5ccccc5nc3c3ccccc43)c3ccccc32)c1` (configuration not stated), the pIC50 was 4.40.
Still for that read-out and setting: the same measure for `N#CC1=C(N)Oc2c(N)cc3nc4ccccc4nc3c2C12C(=O)N(Cc1cnnn1-c1ccc(F)cc1)c1ccccc12` (configuration not stated): under 4.30.
The compound `Cc1ccc(-n2nncc2CN2C(=O)C3(C(C#N)=C(N)Oc4c3c3nc5ccccc5nc3c3ccccc43)c3ccccc32)cc1Cl` (configuration not stated) gave a pIC50 of under 4.30.
The same measure, in the same setting: under `CCOc1ccccc1-n1nncc1CN1C(=O)C2(C(C#N)=C(N)Oc3c2c2nc4ccccc4nc2c2ccccc32)c2ccccc21` (configuration not stated) stands under 4.30.

A further assay concerns MCF7. As to the kind of experiment: Antiproliferative activity against human MCF7 cells after 48 hrs by MTT assay. Type of assay: functional, cell-based. The following applies: MCF7, 48 h.
`N#CC1=C(N)Oc2c(c3nc4ccccc4nc3c3ccccc23)C12C(=O)N(Cc1cnnn1-c1ccc(F)cc1)c1ccccc12` (configuration not stated) gave a pIC50 of under 4.30.
On the same count and under the same terms, under `Cc1ccc(C)c(-n2nncc2CN2C(=O)C3(C(C#N)=C(N)Oc4c3c3nc5ccccc5nc3c3ccccc43)c3ccccc32)c1` (configuration not stated) stands under 4.30.
The compound `N#CC1=C(N)Oc2c(N)cc3nc4ccccc4nc3c2C12C(=O)N(Cc1cnnn1-c1ccccc1Cl)c1ccccc12` (configuration not stated) had a pIC50 of 4.46.
For `Cc1cccc(-n2nncc2CN2C(=O)C3(C(C#N)=C(N)Oc4c3c3nc5ccccc5nc3c3ccccc43)c3ccccc32)c1` (configuration not stated), the pIC50 is under 4.30.
Turning to `N#CC1=C(N)Oc2c(N)cc3nc4ccccc4nc3c2C12C(=O)N(Cc1cnnn1-c1ccc(F)cc1)c1ccccc12` (configuration not stated), the pIC50 was under 4.30.
With `Cc1ccc(-n2nncc2CN2C(=O)C3(C(C#N)=C(N)Oc4c3c3nc5ccccc5nc3c3ccccc43)c3ccccc32)cc1Cl` (configuration not stated), the negative logarithm of the IC50 (pIC50) was under 4.30.
Still for that read-out and setting: the same measure for `CCOc1ccccc1-n1nncc1CN1C(=O)C2(C(C#N)=C(N)Oc3c2c2nc4ccccc4nc2c2ccccc32)c2ccccc21` (configuration not stated): under 4.30.

The test system of another assay is HCT-116. As to the kind of experiment: Antiproliferative activity against human HCT116 cells after 48 hrs by MTT assay. The note with it: HCT-116, 48 h. Type of assay: functional, cell-based.
As to `N#CC1=C(N)Oc2c(c3nc4ccccc4nc3c3ccccc23)C12C(=O)N(Cc1cnnn1-c1ccc(F)cc1)c1ccccc12` (configuration not stated), the pIC50 was under 4.30.
The same measure, in the same setting: the same measure for `Cc1ccc(C)c(-n2nncc2CN2C(=O)C3(C(C#N)=C(N)Oc4c3c3nc5ccccc5nc3c3ccccc43)c3ccccc32)c1` (configuration not stated): under 4.30; for `N#CC1=C(N)Oc2c(N)cc3nc4ccccc4nc3c2C12C(=O)N(Cc1cnnn1-c1ccccc1Cl)c1ccccc12` (configuration not stated): under 4.30; for `Cc1cccc(-n2nncc2CN2C(=O)C3(C(C#N)=C(N)Oc4c3c3nc5ccccc5nc3c3ccccc43)c3ccccc32)c1` (configuration not stated): under 4.30.
Compound `N#CC1=C(N)Oc2c(N)cc3nc4ccccc4nc3c2C12C(=O)N(Cc1cnnn1-c1ccc(F)cc1)c1ccccc12` (configuration not stated) gave a pIC50 of under 4.30.
Same read-out and setting: under `Cc1ccc(-n2nncc2CN2C(=O)C3(C(C#N)=C(N)Oc4c3c3nc5ccccc5nc3c3ccccc43)c3ccccc32)cc1Cl` (configuration not stated) stands under 4.30; under `CCOc1ccccc1-n1nncc1CN1C(=O)C2(C(C#N)=C(N)Oc3c2c2nc4ccccc4nc2c2ccccc32)c2ccccc21` (configuration not stated), under 4.30.

Another assay concerns L02. As to the kind of experiment: Antiproliferative activity against human L02 cells after 48 hrs by MTT assay. The following applies: L02, 48 h. Type of assay: cell-based.
`N#CC1=C(N)Oc2c(c3nc4ccccc4nc3c3ccccc23)C12C(=O)N(Cc1cnnn1-c1ccc(F)cc1)c1ccccc12` (configuration not stated) had a negative logarithm of the IC50 (pIC50) of under 4.30.
In the case of `Cc1ccc(C)c(-n2nncc2CN2C(=O)C3(C(C#N)=C(N)Oc4c3c3nc5ccccc5nc3c3ccccc43)c3ccccc32)c1` (configuration not stated), the pIC50 was under 4.30.
The compound `N#CC1=C(N)Oc2c(N)cc3nc4ccccc4nc3c2C12C(=O)N(Cc1cnnn1-c1ccccc1Cl)c1ccccc12` (configuration not stated) had a pIC50 of under 4.30.
Take `Cc1cccc(-n2nncc2CN2C(=O)C3(C(C#N)=C(N)Oc4c3c3nc5ccccc5nc3c3ccccc43)c3ccccc32)c1` (configuration not stated): the pIC50 is under 4.30.
Regarding `N#CC1=C(N)Oc2c(N)cc3nc4ccccc4nc3c2C12C(=O)N(Cc1cnnn1-c1ccc(F)cc1)c1ccccc12` (configuration not stated), the pIC50 was under 4.30.
For `Cc1ccc(-n2nncc2CN2C(=O)C3(C(C#N)=C(N)Oc4c3c3nc5ccccc5nc3c3ccccc43)c3ccccc32)cc1Cl` (configuration not stated), the negative logarithm of the IC50 (pIC50) was under 4.30.
Compound `CCOc1ccccc1-n1nncc1CN1C(=O)C2(C(C#N)=C(N)Oc3c2c2nc4ccccc4nc2c2ccccc32)c2ccccc21` (configuration not stated) gave a pIC50 of under 4.30.

The next assay deals with HepG2. As to the kind of experiment: Antiproliferative activity against human HepG2 cells after 48 hrs by MTT assay. Type of assay: functional, cell-based. The following applies: HepG2, 48 h.
With `N#CC1=C(N)Oc2c(c3nc4ccccc4nc3c3ccccc23)C12C(=O)N(Cc1cnnn1-c1ccc(F)cc1)c1ccccc12` (configuration not stated), the pIC50 is under 4.30.
The same measure, in the same setting: under `Cc1ccc(C)c(-n2nncc2CN2C(=O)C3(C(C#N)=C(N)Oc4c3c3nc5ccccc5nc3c3ccccc43)c3ccccc32)c1` (configuration not stated) stands under 4.30.
On to `N#CC1=C(N)Oc2c(N)cc3nc4ccccc4nc3c2C12C(=O)N(Cc1cnnn1-c1ccccc1Cl)c1ccccc12` (configuration not stated), for which the pIC50 is 4.47.
`Cc1cccc(-n2nncc2CN2C(=O)C3(C(C#N)=C(N)Oc4c3c3nc5ccccc5nc3c3ccccc43)c3ccccc32)c1` (configuration not stated) gave a pIC50 of under 4.30.
Still for that read-out and setting: the same measure for `N#CC1=C(N)Oc2c(N)cc3nc4ccccc4nc3c2C12C(=O)N(Cc1cnnn1-c1ccc(F)cc1)c1ccccc12` (configuration not stated): under 4.30.
The compound `Cc1ccc(-n2nncc2CN2C(=O)C3(C(C#N)=C(N)Oc4c3c3nc5ccccc5nc3c3ccccc43)c3ccccc32)cc1Cl` (configuration not stated) had a pIC50 of under 4.30.
Consider `CCOc1ccccc1-n1nncc1CN1C(=O)C2(C(C#N)=C(N)Oc3c2c2nc4ccccc4nc2c2ccccc32)c2ccccc21` (configuration not stated), for which the pIC50 is under 4.30.
